From patent publication US12251382B2, “Substituted amino-pyrimidine compound for use in a method for treatment and prevention of multiple sclerosis” (Merck Patent GmbH, priority 2018, dated 2025)
Where a name gives a salt, the structure may show the parent alone.

How the values were obtained:
[1] = tested on: human patients suffering from relapsing multiple sclerosis (RMS); test: Phase II RMS study: brain MRI (Gd+ T1 lesions, T2 lesions); assay type: in vivo; parameters: key to Gd+ T1 lesion rate (subject level), Median / Gd+ T1 Lesion rate, adjusted (negative binomial model): number of Gd+ T1 lesions per scan
Experimental: (§1) The assessing Investigator and central MRI reader were treatment blinded.
The protocol specified that subjects self-administered the IMP at a set time each day (every 12 hours ±2 hours). Subjects were to take their daily dose more than 1 hour prior to a meal or snack and more than 2 hours after a meal or snack. Clear fluids were allowed at any time. On trial visit days, the IMP was to be administered during the trial visit after the scheduled trial visit procedures (other than post-treatment PK/PD sampling) are completed.
Stratification occurred by region (USA or Western Europe, Eastern Europe and BTKO capable, Eastern Europe and not BTKO capable, and RoW). For the first 7 days, Tecfidera was administered orally at 120 mg twice daily. Following this and for the duration of treatment, Tecfidera was administered orally at 240 mg twice daily.
The protocol specified that MRI scans were to be performed at Screening, at 4-week intervals from Week 12 to 24, and at the End of Treatment Visit at Week 48 (including for subjects receiving Tecfidera who choose to enter the OLE Period). […] If a subject discontinued the study more than 4 weeks after his or her most recent MRI, the protocol specified that an MRI may be obtained at the 4-week Safety Follow-up Visit. The Screening MRI scan was to be acquired before randomization and dosing to allow for the readouts to be read by the central MRI reader (approximately 7 days).
Gadolinium was used to enhance T1-weighted lesions and to optimize clarity and accuracy of reporting. As gadolinium is excreted renally, subjects with acute renal insufficiency (eGFR <45 mL/min/1.73 m^2) will be excluded from the trial.
The protocol specified that brain MRI scans were performed according to a standardized imaging protocol before and after the administration of single-dose gadolinium. Images were assessed and reported by an independent, blinded, centralized MRI reading service, provided by NeuroRx Research. The assessment was performed in the absence of clinical information. Further details, including the scans required and the optimal MRI workflow, were provided in a separate Imaging Manual provided to each trial site by NeuroRx Research. All MRI images were reviewed and reported locally by a radiologist for safety. The local report was to contain only non-MS pathology and was to be provided to the Treating Investigator.
The primary endpoint was the total number of gadolinium-enhancing T1 lesions at Week 12, 16, 20, and 24. The primary analysis was a comparison of each evobrutinib dose arm versus placebo based on this endpoint, with a supportive test for dose-response. Secondary Endpoints
Other covariates were permitted to be considered. […] Descriptive statistics for the total number of Gd+ T1 lesions, at Week 12, 16, 20, and 24, are provided for each treatment group.
Estimation of mean per-scan number of Gd+ T1 lesions at Weeks 12, 16, 20, and 24, for each treatment group, was based on the NB model. In the analysis of each secondary endpoint, other covariates were permitted to be included in the model.
Primary and secondary efficacy endpoints were analysed based on the modified intention-to-treat (mITT) analysis set, consisting of all randomized patients with at least one available baseline and one post-baseline MRI assessment. […] For each endpoint, rate ratio (RR; null-hypothesis RR=1.0) adjusted for baseline disease activity was reported together with associated 95% CI and p-value. The T2 lesion endpoint was analysed similarly. Dose-response relationships between evobrutinib treatment dose and primary and key secondary endpoints were assessed for linear and monotonic trend. The analysis of CFB in cube root of volume of T2 lesions at Week 24 was based on a mixed-effect model for repeated measures, with fixed effects for treatment, week of visit, and treatment-by-week interaction, random effect for subject, and adjustment for baseline cube root of lesion volume. CFB in SF-36 score at Week 24 was analysed similarly. […]

[2] = Phase II RMS study: safety (adverse events, laboratory) over 24 weeks; assay type: in vivo; details: 240 mg twice daily, 24 weeks
Experimental: as §1
Safety profile of the IMP was assessed through the recording, reporting and analysis of baseline medical conditions; AEs; physical examination findings including vital signs, ECGs, and laboratory tests (including Ig and subclass concentration and B, NK, and T cell counts). Comprehensive assessment of any apparent toxicity experienced by each subject was performed from the time of giving informed consent and throughout the trial. The Investigator was to report any AEs, whether observed by the Investigator or reported by the subject.
Adverse Event: An AE was any untoward medical occurrence in a subject or clinical investigation subject administered a pharmaceutical product, regardless of causal relationship with this treatment. An AE could therefore be any unfavorable and unintended sign (including an abnormal laboratory finding), symptom, or disease temporally associated with the use of a medicinal product, whether or not considered related to the medicinal product.
The Investigator was required to grade the severity or toxicity of each AE. Investigators referenced the National Cancer Institute-Common Terminology Criteria for AEs (NCI-CTCAE), Version 4.03 (publication date: 14 Jun. 2010) a descriptive terminology provided in the Manual of Procedures that can be used for AE reporting.
A general grading (severity/intensity; hereafter referred to as severity) scale was provided at the beginning of the above referenced document, and specific event grades were also provided. Only if a particular AE's severity was not specifically graded by the guidance document, then the Investigator was to use the general NCI-CTCAE definitions of Grade 1 through Grade 5 following his or her best medical judgment. The 5 general grades are: • Grade 1 or Mild • Grade 2 or Moderate • Grade 3 or Severe • Grade 4 or Life-threatening • Grade 5 or Death.
Serious Adverse Events: An SAE is any untoward medical occurrence that at any dose: • Results in death. • Is life-threatening. (Note: The term “life-threatening” refers to an event in which the subject is at risk of death at the time of the event, not an event that hypothetically might have caused death if it was more severe) • Requires inpatient hospitalization or prolongs an existing hospitalization, except in the case of hospitalizations due to protocol-defined relapses. • Results in persistent or significant disability or incapacity. • Is a congenital anomaly or birth defect. • Is otherwise considered to be medically important.

[3] = tested on: human patients suffering from relapsing multiple sclerosis (RMS); test: Phase II RMS study: HRQoL SF-36 Physical Component Summary score; assay type: in vivo; details: open-label reference arm, 240 mg twice daily
Experimental: Analysis of Primary Endpoint
(§2) Primary and secondary efficacy endpoints were analysed based on the modified intention-to-treat (mITT) analysis set, consisting of all randomized patients with at least one available baseline and one post-baseline MRI assessment. […] For each endpoint, rate ratio (RR; null-hypothesis RR=1.0) adjusted for baseline disease activity was reported together with associated 95% CI and p-value. The T2 lesion endpoint was analysed similarly. Dose-response relationships between evobrutinib treatment dose and primary and key secondary endpoints were assessed for linear and monotonic trend. The analysis of CFB in cube root of volume of T2 lesions at Week 24 was based on a mixed-effect model for repeated measures, with fixed effects for treatment, week of visit, and treatment-by-week interaction, random effect for subject, and adjustment for baseline cube root of lesion volume. CFB in SF-36 score at Week 24 was analysed similarly. Descriptive statistics were used to further describe the study outcomes.

[4] = tested on: human patients suffering from relapsing multiple sclerosis (RMS); test: Phase II RMS study: qualified relapse assessment (ARR, relapse-free status); assay type: in vivo; details: open-label reference arm, 240 mg twice daily, Week 24
Experimental: as §1
Subjects were assessed for MS relapse at visits beginning at Week 4. Relapse was also assessed at any Unscheduled Visit for Neurological Worsening and Relapse Assessment. For subjects in the OLE Period, MS relapse was assessed at all visits. A qualifying relapse was defined as new, worsening or recurrent neurological symptoms attributed to MS that last for at least 24 hours without fever or infection, or adverse reaction to prescribed medication, preceded by a stable or improving neurological status of at least 30 days. The relapse must have been accompanied by new clinical signs (i.e., changes in the neurological examination or an increase in EDSS score).
The protocol specified that all cases of potential relapse were to be objectively confirmed by the Investigator regardless of whether they were identified during a scheduled or unscheduled visit. Any assessments needed to confirm the relapse were to be performed, and details of the relapse were to be documented within the relevant section(s) of the eCRF.
Additional Secondary Endpoints
Analysis of secondary endpoints was based on the mITT analysis set. […] Descriptive statistics for ARR were calculated for each treatment group as the total number of qualified relapses divided by the number of subject-years of observation.
as §2

[5] = therapeutic or supratherapeutic doses, thorough QT studies; cited from earlier work
[6] = open-label reference arm, 240 mg twice daily

Compound	Total Gd+ T1 lesions over 4 scans in an outlier patient ([1]; one patient of the open-label reference arm)	Change in volume of T2 lesions from baseline to week 24, Mean ± SD [1, 6] [cc]	Change in volume of T2 lesions from baseline to week 24, Median [1, 6] [cc]	Gd+ T1 lesion rate (subject level), Median [1, 6]	Gd+ T1 lesion rate (subject level; count per scan, weeks 12-24), Mean ± SD [1, 6]	Total Number of New or Enlarging T2 Lesions at Week 24, Mean ± SD [1, 6]	Total number of Gd+ T1 lesions at Weeks 12, 16, 20, 24, Mean ± SD [1, 6]	Total number of Gd+ T1 lesions at Weeks 12, 16, 20, 24, Median (min-max) [1, 6]	New or enlarging T2 lesion rate (subject level), Mean ± SD ([1]; open-label reference arm, 240 mg twice daily, Weeks 12-24)	Total number of Gd+ T1 lesions at Weeks 12, 16, 20, 24, Mean ± SD ([1]; open-label reference arm, 240 mg twice daily, listed as dimethyl fumarate)	TEAE: Infections and infestations [2]	TEAE: Urinary tract infection [2]	Change in SF-36 PCS score from baseline to week 24, Mean ± SD [3]	Change in SF-36 PCS score from baseline to week 24, Median [3]	Change in SF-36 PCS score from baseline to week 24, Mean ± SD ([3]; listed as dimethyl fumarate)	Proportion of patients who qualified as relapse-free [4] [%]	Unadjusted ARR [4]	Prolongation of the QTc interval [5]
COC(=O)/C=C/C(=O)OC [Dimethyl fumarate, dimethyl fumarate, reference compound]	230	0.46 ± 2.97	−0.02	0.0	1.45 ± 7.29	5.35 ± 16.67	5.78 ± 29.17	0 (0-213)	1.54 ± 5.46	5.78 (±29.17)	7 (13.0) n (%)	0 (0.0) n (%)	1.6 ± 5.17	1.7	1.6±5.17	89	0.20	–
CC#CC(=O)N1CCC[C@H]1c1nc(-c2ccc(C(=O)Nc3ccccn3)cc2)c2c(N)nccn12 [acalabrutinib]	–	–	–	–	–	–	–	–	–	–	–	–	–	–	–	–	–	Neither ibrutinib nor acalabrutinib have been associated with clinically relevant prolongation of the QTc interval
